# Experiment: Intravenous safety of motilin in rats
# Format: in vivo
# Settings: 10 mg/kg intravenously
# Source text: The preparation usually contains a therapeutically effective quantity, suitably about 0.05 to about 5% by weight, preferably about 0.1 to about 2% by weight, of motilin.
substance,measurement,value
motilin,mortality,did not die

# Reference: patent US5011824A, “Rectal motilin preparation” (Kyowa Hakko Kogyo Co., Ltd., priority 1988, dated 1991)
